Literature values, collected in patent US20160244831A9, “Genetic Alterations Associated with Autism and the Autistic Phenotype and Methods of Use Thereof for the Diagnosis and Treatment of Autism” (The Children's Hospital of Philadelphia, priority 2011, published 2016).

Key:
[1] = tested on: RANBP1 mRNA
[2] = individuals exposed between days 24-28 post-fertilization
[3] = at levels that are highly teratogenic in humans

## O=C1CCC(N2C(=O)c3ccccc3C2=O)C(=O)N1 (stereo not shown) [Thalidomide]
[1]
  expression of RANBP1 mRNA: decreased expression
[2]
  rate of ASD: 27%
[3]
  teratogenicity in animals: lack of teratogenicity

## CCCC(CCC)C(=O)O [Valproate, Valproic acid]
[1]
  expression of RANBP1 mRNA: decreased expression
